Where two headings read alike, the source gives them in different places.
How the values were obtained:
P. falciparum = P. falciparum growth in vitro (Table 14.1, strain not stated); type: cell-based; conditions: Plasmodium falciparum; for inhibition at 1 µg/mL: 1 μg/ml; for inhibition at 10 µg/mL: 10 μg/ml
Description: The P. falciparum experimental setup was as described in Example 15.
Testing of the effect of drugs and serum on the in vitro growth of the parasites. The experiments in which compounds were tested for their ability to inhibit parasite growth were performed by a modification of the method originally described by Jensen et al. (1982). Fifty μl of parasitized erythrocytes (parasitemia approximately 1%) in a concentration of 5×10^8/ml and 50 μl of RPMI medium containing different concentrations of the test compound was added to each well of a 96 well flat-bottomed microtiter plate (Nunc). The cultures were then incubated for 48 hours, 24 hours before termination of the culture adding 20 μl of 3-H-hypoxanthine (40 uCi/ml) (New England Nuclear, Boston, Mass., USA) was added to each well. The cultures were then harvested onto glass fiber filters using a Skatron cell harvester (Skatron, Lierbyen, Norway), and the incorporation of 3-H-hypoxanthine into the DNA of dividing parasites was determined by liquid scintillation spectrometry.

L. major promastigotes = L. major promastigotes from 4-days cultures, 3H-thymidine uptake (Examples 5, 14); type: cell-based, Leishmania major; conditions: Leishmania major, Table 14.1, read-out: percentage inhibition of promastigotes (upper figure); for inhibition at 0.5 µg/mL: 0.5 μg/ml; for inhibition at 1 µg/mL: 1 μg/ml; for inhibition at 5 µg/mL: 5 μg/ml; for inhibition at 10 µg/mL: 10 μg/ml
Description: Parasite cultures. The same parasite culture as described in Example 4. Promastigotes were harvested on day 4 of the culture and used for the parasiticidal assay.
Effect on promastigotes. […] Following incubation, […] of ^3H-thymidine was added to each well and further incubated for 18 hrs. Promastigotes were then harvested on filter paper by means of a cell harvester (Skatron, Lierbyen, Norway), extensively washed with distilled water and counted in a scintillation counter (Minaxi Ti-Carb 4000, United Technologies, Packard, USA).
L. major promastigotes. The L. major promastigotes were prepared as described in Example 4 and harvested after 4 days.

human lymphocytes = test: Lymphocyte Proliferation Assay, 3H-thymidine incorporation (Example 13); conditions: Homo sapiens, Lymphocyte, read-out: inhibition of lymphocytes (lower figure)
[1] = read-out: inhibition of malaria parasites (middle figure)
[2] = 0.5 μg/ml, read-out: inhibition of malaria parasites (middle figure) (converted)
[3] = read-out: inhibition of malaria parasites (middle figure) (converted)
[4] = 5 μg/ml, read-out: inhibition of malaria parasites (middle figure) (converted)

For COc1ccc(/C=C/C(=O)c2ccccc2)c(OC)c1 [drawing 67], the inhibition at 5 µg/mL (P. falciparum; [1]) was 35.6%, the inhibition at 0.5 µg/mL (P. falciparum; [2]) was 0% and the inhibition at 1 µg/mL (P. falciparum; [3]) was 14.7%. The inhibition at 10 µg/mL (P. falciparum; [3]) was 81.8%, the inhibition at 0.5 µg/mL (L. major promastigotes) was 14.5 ± 11.6% and the inhibition at 1 µg/mL (L. major promastigotes) was 27 ± 13.7%. It also gave an inhibition at 5 µg/mL (L. major promastigotes) of 77.8 ± 11.3%, an inhibition at 10 µg/mL (L. major promastigotes) of 95.5 ± 3.8% and an inhibition at 0.5 µg/mL (human lymphocytes) of 9.1%. The inhibition at 1 µg/mL (human lymphocytes) was 9.2%, the inhibition at 5 µg/mL (human lymphocytes) was 2% and the inhibition at 10 µg/mL (human lymphocytes) was 3.1%.

COc1ccc(/C=C/C(=O)c2ccc(O)cc2)c(OC)c1 [drawing 70] gave an inhibition at 0.5 µg/mL (P. falciparum; [2]) of 2.2%, an inhibition at 1 µg/mL (P. falciparum; [3]) of 14.8% and an inhibition at 5 µg/mL (P. falciparum; [4]) of 31.6%. The inhibition at 10 µg/mL (P. falciparum; [3]) was 64.2%, the inhibition at 0.5 µg/mL (L. major promastigotes) was 20 ± 20.6% and the inhibition at 1 µg/mL (L. major promastigotes) was 29 ± 22.2%. The inhibition at 5 µg/mL (L. major promastigotes) was 66.9 ± 15.9%, the inhibition at 10 µg/mL (L. major promastigotes) was 90.9 ± 7.4% and the inhibition at 0.5 µg/mL (human lymphocytes) was 1.5%. For the same compound, the inhibition at 1 µg/mL (human lymphocytes) was 6.3%, the inhibition at 5 µg/mL (human lymphocytes) was 2.4% and the inhibition at 10 µg/mL (human lymphocytes) was 4%.

For COc1ccc(OC)c(/C=C/C(=O)c2ccc(O)cc2)c1 [drawing 71], the inhibition at 0.5 µg/mL (P. falciparum; [2]) was 15.2%, the inhibition at 1 µg/mL (P. falciparum; [3]) was 23.1% and the inhibition at 5 µg/mL (P. falciparum; [4]) was 71%. It also gave an inhibition at 10 µg/mL (P. falciparum; [3]) of 93.1%, an inhibition at 0.5 µg/mL (L. major promastigotes) of 34.3% and an inhibition at 1 µg/mL (L. major promastigotes) of 61.9%. For the same compound, the inhibition at 5 µg/mL (L. major promastigotes) was 96.2%, the inhibition at 10 µg/mL (L. major promastigotes) was 99.1% and the inhibition at 0.5 µg/mL (human lymphocytes) was 3.2%. It also gave an inhibition at 1 µg/mL (human lymphocytes) of 6.9%, an inhibition at 5 µg/mL (human lymphocytes) of 78.8% and an inhibition at 10 µg/mL (human lymphocytes) of 98.2%.

COc1ccc(/C=C/C(=O)c2ccc(O)cc2)cc1OC [drawing 73] gave an inhibition at 0.5 µg/mL (P. falciparum; [2]) of 21%, an inhibition at 1 µg/mL (P. falciparum; [3]) of 35.1% and an inhibition at 5 µg/mL (P. falciparum; [4]) of 39.9%. For the same compound, the inhibition at 10 µg/mL (P. falciparum; [3]) was 73.4%, the inhibition at 0.5 µg/mL (L. major promastigotes) was 17.8% and the inhibition at 1 µg/mL (L. major promastigotes) was 34.3%. It also gave an inhibition at 5 µg/mL (L. major promastigotes) of 65.6%, an inhibition at 10 µg/mL (L. major promastigotes) of 80% and an inhibition at 0.5 µg/mL (human lymphocytes) of 0%. For the same compound, the inhibition at 1 µg/mL (human lymphocytes) was 0.1%, the inhibition at 5 µg/mL (human lymphocytes) was 5.2% and the inhibition at 10 µg/mL (human lymphocytes) was 27.4%.

With C=CCOc1ccc(C(=O)/C=C/c2cc(OC)ccc2OC)cc1 [drawing 78] the inhibition at 0.5 µg/mL (P. falciparum; [2]) was 0%, the inhibition at 1 µg/mL (P. falciparum; [3]) was 0% and the inhibition at 5 µg/mL (P. falciparum; [4]) was 35%. It also gave an inhibition at 10 µg/mL (P. falciparum; [3]) of 80%, an inhibition at 0.5 µg/mL (L. major promastigotes) of 10 ± 9.7% and an inhibition at 1 µg/mL (L. major promastigotes) of 15.6 ± 15.1%. The inhibition at 5 µg/mL (L. major promastigotes) was 63 ± 15.1%, the inhibition at 10 µg/mL (L. major promastigotes) was 89.4 ± 10.2% and the inhibition at 0.5 µg/mL (human lymphocytes) was 5.7%. It also gave an inhibition at 1 µg/mL (human lymphocytes) of 12.6%, an inhibition at 5 µg/mL (human lymphocytes) of 4.3% and an inhibition at 10 µg/mL (human lymphocytes) of 2.3%.

C=CCOc1ccc(C(=O)/C=C/c2cccc(OC)c2OC)cc1 [drawing 81] was tested, and the inhibition at 0.5 µg/mL (P. falciparum; [2]) was 0%, the inhibition at 1 µg/mL (P. falciparum; [3]) was 17.2% and the inhibition at 5 µg/mL (P. falciparum; [4]) was 68.2%. The inhibition at 10 µg/mL (P. falciparum; [3]) was 73.1%, the inhibition at 0.5 µg/mL (L. major promastigotes) was 13.9 ± 12.9% and the inhibition at 1 µg/mL (L. major promastigotes) was 20.7 ± 17.1%. For the same compound, the inhibition at 5 µg/mL (L. major promastigotes) was 82.1 ± 13.6%, the inhibition at 10 µg/mL (L. major promastigotes) was 98.1 ± 1% and the inhibition at 0.5 µg/mL (human lymphocytes) was 10.8%. It also gave an inhibition at 1 µg/mL (human lymphocytes) of 14.2%, an inhibition at 5 µg/mL (human lymphocytes) of 8.8% and an inhibition at 10 µg/mL (human lymphocytes) of 13.8%.

Work on C=CCOc1ccc(C(=O)/C=C/c2ccc(OC)cc2OC)cc1 [drawing 82] yielded an inhibition at 0.5 µg/mL (P. falciparum; [2]) of 31.1%, an inhibition at 1 µg/mL (P. falciparum; [3]) of 36.5% and an inhibition at 5 µg/mL (P. falciparum; [4]) of 74.4%. For the same compound, the inhibition at 10 µg/mL (P. falciparum; [3]) was 97.3%, the inhibition at 0.5 µg/mL (L. major promastigotes) was 35.4% and the inhibition at 1 µg/mL (L. major promastigotes) was 62.8%. The inhibition at 5 µg/mL (L. major promastigotes) was 71.4%, the inhibition at 10 µg/mL (L. major promastigotes) was 85.4% and the inhibition at 0.5 µg/mL (human lymphocytes) was 0%. For the same compound, the inhibition at 1 µg/mL (human lymphocytes) was 1.7%, the inhibition at 5 µg/mL (human lymphocytes) was 5.9% and the inhibition at 10 µg/mL (human lymphocytes) was 5.5%.

C=CCOc1ccc(C(=O)/C=C/c2c(OC)cccc2OC)cc1 [drawing 83] gave an inhibition at 0.5 µg/mL (P. falciparum; [2]) of 0%, an inhibition at 1 µg/mL (P. falciparum; [3]) of 27.4% and an inhibition at 5 µg/mL (P. falciparum; [4]) of 39.7%. The inhibition at 10 µg/mL (P. falciparum; [3]) was 65.7%, the inhibition at 0.5 µg/mL (L. major promastigotes) was 11.3 ± 9.8% and the inhibition at 1 µg/mL (L. major promastigotes) was 16.3 ± 12.4%. For the same compound, the inhibition at 5 µg/mL (L. major promastigotes) was 63.7 ± 24.2%, the inhibition at 10 µg/mL (L. major promastigotes) was 91.1 ± 4.1% and the inhibition at 0.5 µg/mL (human lymphocytes) was 1%. For the same compound, the inhibition at 1 µg/mL (human lymphocytes) was 1.3%, the inhibition at 5 µg/mL (human lymphocytes) was 0% and the inhibition at 10 µg/mL (human lymphocytes) was 0%.

Compound C=CCOc1ccc(C(=O)/C=C/c2ccc(OC)c(OC)c2)cc1 [drawing 84] has an inhibition at 0.5 µg/mL (P. falciparum; [1]) of 2.9%, an inhibition at 1 µg/mL (P. falciparum; [3]) of 11.4% and an inhibition at 5 µg/mL (P. falciparum; [4]) of 22.8%. It also gave an inhibition at 10 µg/mL (P. falciparum; [3]) of 68%, an inhibition at 0.5 µg/mL (L. major promastigotes) of 15.2 ± 11.3% and an inhibition at 1 µg/mL (L. major promastigotes) of 30.4 ± 23.2%. It also gave an inhibition at 5 µg/mL (L. major promastigotes) of 70.4 ± 15.2%, an inhibition at 10 µg/mL (L. major promastigotes) of 90.8 ± 9.7% and an inhibition at 1 µg/mL (human lymphocytes) of 0%. It also gave an inhibition at 5 µg/mL (human lymphocytes) of 0% and an inhibition at 10 µg/mL (human lymphocytes) of 15.6%.
